Laboratory results published in ChEMBL document CHEMBL5512656, “Tetrazole derivatives in the management of neurological disorders: Recent advances on synthesis and pharmacological aspects” (Eur J Med Chem, 2024).

Experiments:
[1] = Cytotoxicity against mouse NIH/3T3 cells incubated for 24 hrs by MTT assay
[2] = target: Acetylcholinesterase (Electrophorus electricus) (UniProt O42275); experiment: Inhibition of electric eel AChE using acetylthiocholine iodide as substrate preincubated for 15 mins followed by substrate addition and measured after 30 mins by Ellman's method relative to control; settings: time 45.0 min
[3] = Inhibition of 5-HT uptake in HEK293 cells transfected with human SERT by liquid scintillation counting analysis; format: functional, cell-based
[4] = Inhibition of NE uptake in HEK293 cells transfected with human NET by liquid scintillation counting analysis; format: functional, cell-based
[5] = Inhibition of DA uptake in HEK293 cells transfected with human DAT at 1 uM by liquid scintillation counting analysis; format: functional
[6] = Inhibition of NE uptake in HEK293 cells transfected with human NET at 1 uM by liquid scintillation counting analysis; format: functional
[7] = Inhibition of 5-HT uptake in HEK293 cells transfected with human SERT at 1 uM by liquid scintillation counting analysis; format: functional
[8] = Inhibition of DA uptake in HEK293 cells transfected with human DAT by liquid scintillation counting analysis; format: functional, cell-based
Cholinesterase = Cholinesterase (Equus caballus, UniProt P81908); experiment: Inhibition of equine serum BChE using butyrylthiocholine chloride as substrate preincubated for 10 mins followed by substrate addition and measured after 15 mins by Ellman's method
Acetylcholinesterase [9] = target: T1, Acetylcholinesterase (Electrophorus electricus, UniProt O42275); experiment: Inhibition of electric eel AChE using acetylthiocholine iodide as substrate preincubated for 10 mins followed by substrate addition and measured after 15 mins by Ellman's method
Mus musculus [10] = experiment: Antidepressant activity in Kunming mouse assessed as reduction in duration of immobility time at 30 mg/kg, ip by forced swim test; format: functional
Mus musculus [11] = experiment: Anticonvulsant activity in ip dosed MES induced Kunming mouse seizure model measured after 0.5, 1, 2, and 4 hrs intervals; format: functional
[12] = Protection index, ratio of TD50 for neurotoxicity in ip dosed Kunming mouse to ED50 for anticonvulsant activity in ip dosed Kunming mouse; format: toxicity, organism-based; settings: in vivo, read-out: PI
[13] = Neurotoxicity in ip dosed Kunming mouse by rotarod test; format: toxicity, organism-based; settings: in vivo
Mus musculus [14] = experiment: Anticonvulsant activity in ip dosed MES induced mouse seizure model measured after 0.5 and 4 hrs; format: functional
Mus musculus [15] = experiment: Anticonvulsant activity in ip dosed scPTZ induced Kunming mouse seizure model measured for 30 mins; format: functional; settings: 0.5 h
[16] = Neurotoxicity in ip dosed mouse by rotarod test; format: toxicity, organism-based; settings: in vivo
[17] = target: Cholinesterase (Equus caballus) (UniProt P81908); experiment: Inhibition of equine serum BChE using butyrylthiocholine iodide as substrate preincubated for 15 mins followed by substrate addition and measured after 30 mins by Ellman's method relative to control; settings: time 45.0 min
Mus musculus [18] = experiment: Antidepressant activity in Kunming mouse assessed as reduction in duration of immobility time at 40 mg/kg, ip by forced swim test; format: functional
Acetylcholinesterase [19] = target: T1, Acetylcholinesterase; experiment: Inhibition of electric eel AChE using acetylthiocholine iodide as substrate preincubated for 15 mins followed by substrate addition and measured after 30 mins by Ellman's method
Acetylcholinesterase [20] = target: T1, Acetylcholinesterase; experiment: Inhibition of electric eel AChE using acetylthiocholine iodide as substrate incubated for 30 mins by Ellman's method
Rattus norvegicus [21] = experiment: Anticonvulsant activity in po dosed scPTZ induced Albino rat seizure model measured after 4 hrs; format: functional
Rattus norvegicus [22] = experiment: Anticonvulsant activity in po dosed MES induced Albino rat seizure model measured after 4 hrs; format: functional
Mus musculus [23] = experiment: Antidepressant activity in Kunming mouse assessed as reduction in duration of immobility time at 50 mg/kg, ip by forced swim test; format: functional
Mus musculus [24] = experiment: Anticonvulsant activity in po dosed MES induced Kunming mouse seizure model; format: functional
Mus musculus [25] = experiment: Anticonvulsant activity in ip dosed scPTZ induced Kunming mouse seizure model measured after 30 mins; format: functional; settings: 0.5 h
Mus musculus [26] = experiment: Anticonvulsant activity in ip dosed MES induced Kunming mouse seizure model; format: functional
Mus musculus [27] = experiment: Anticonvulsant activity in ip dosed scPTZ induced Kunming mouse seizure model; format: functional
[28] = Neurotoxicity in ip dosed Kunming mouse after 15 mins by rotarod test; format: toxicity, organism-based; settings: in vivo

T1 sequence (O42275 whole entry): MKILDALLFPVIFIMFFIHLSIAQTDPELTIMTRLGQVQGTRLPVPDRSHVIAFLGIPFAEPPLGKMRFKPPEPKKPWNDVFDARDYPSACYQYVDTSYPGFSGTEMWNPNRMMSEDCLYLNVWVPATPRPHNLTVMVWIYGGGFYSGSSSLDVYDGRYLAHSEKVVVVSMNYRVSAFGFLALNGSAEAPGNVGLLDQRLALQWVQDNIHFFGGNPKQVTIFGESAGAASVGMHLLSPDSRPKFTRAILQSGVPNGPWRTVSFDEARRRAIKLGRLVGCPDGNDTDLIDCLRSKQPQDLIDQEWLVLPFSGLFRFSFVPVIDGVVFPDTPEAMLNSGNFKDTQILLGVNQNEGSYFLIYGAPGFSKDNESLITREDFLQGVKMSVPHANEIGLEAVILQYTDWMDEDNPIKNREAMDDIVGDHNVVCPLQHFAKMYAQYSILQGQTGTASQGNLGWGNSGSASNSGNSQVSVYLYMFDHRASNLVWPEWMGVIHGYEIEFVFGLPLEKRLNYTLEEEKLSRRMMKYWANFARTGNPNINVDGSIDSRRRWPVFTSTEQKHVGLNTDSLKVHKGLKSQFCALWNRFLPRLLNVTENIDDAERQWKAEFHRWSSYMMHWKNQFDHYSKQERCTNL
Sequence of Cholinesterase (P81908 whole entry): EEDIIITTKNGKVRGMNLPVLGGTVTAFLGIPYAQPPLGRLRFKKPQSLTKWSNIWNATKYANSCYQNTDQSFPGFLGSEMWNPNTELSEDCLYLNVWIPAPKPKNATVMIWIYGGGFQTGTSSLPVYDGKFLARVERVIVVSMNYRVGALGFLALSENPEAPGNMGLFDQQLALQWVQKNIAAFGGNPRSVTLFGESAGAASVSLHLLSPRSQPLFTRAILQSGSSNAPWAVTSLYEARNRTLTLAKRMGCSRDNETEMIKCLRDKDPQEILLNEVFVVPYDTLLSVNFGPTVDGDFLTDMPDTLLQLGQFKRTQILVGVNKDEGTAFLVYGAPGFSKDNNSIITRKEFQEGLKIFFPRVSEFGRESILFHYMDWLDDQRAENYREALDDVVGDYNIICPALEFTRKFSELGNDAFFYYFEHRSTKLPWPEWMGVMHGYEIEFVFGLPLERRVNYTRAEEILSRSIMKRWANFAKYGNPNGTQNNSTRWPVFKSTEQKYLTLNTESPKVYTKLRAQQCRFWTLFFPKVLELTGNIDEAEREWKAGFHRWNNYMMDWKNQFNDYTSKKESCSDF
Sequence of Acetylcholinesterase (Electrophorus electricus) (O42275 24-633 limits assumed): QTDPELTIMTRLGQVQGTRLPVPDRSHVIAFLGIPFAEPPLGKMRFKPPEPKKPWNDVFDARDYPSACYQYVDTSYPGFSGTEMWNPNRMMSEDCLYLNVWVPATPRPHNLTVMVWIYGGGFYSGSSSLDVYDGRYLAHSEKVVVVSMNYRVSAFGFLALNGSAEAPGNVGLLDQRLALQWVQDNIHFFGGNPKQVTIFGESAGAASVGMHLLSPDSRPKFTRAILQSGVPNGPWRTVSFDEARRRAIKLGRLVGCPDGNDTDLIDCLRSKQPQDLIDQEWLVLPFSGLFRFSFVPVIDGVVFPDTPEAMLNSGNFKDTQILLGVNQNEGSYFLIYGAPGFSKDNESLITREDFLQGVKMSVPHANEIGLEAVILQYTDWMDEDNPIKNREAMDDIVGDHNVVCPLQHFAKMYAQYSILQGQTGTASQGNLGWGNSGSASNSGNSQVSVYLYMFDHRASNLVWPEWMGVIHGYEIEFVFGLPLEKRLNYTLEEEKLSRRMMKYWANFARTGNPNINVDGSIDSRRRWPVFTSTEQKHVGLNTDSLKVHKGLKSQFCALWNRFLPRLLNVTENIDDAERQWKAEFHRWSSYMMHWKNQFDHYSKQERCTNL
Sequence of Cholinesterase (Equus caballus) (P81908 whole entry): as the sequence (P81908 whole entry) above

Structure (SMILES): COc1cc2c(cc1OC)C(=O)C(CC1CCN(Cc3ccccc3)CC1)C2 (configuration not stated) [DONEPEZIL]
- IC50 at 24 h ([1]; nih3t3): 1.26 µM

Structure (SMILES): O=[N+]([O-])c1ccccc1/C=N/NCCCCc1nnnn1-c1ccccc1
- IC50 at 24 h ([1]; NIH/3T3 cells): 55 µg/mL
- inhibition [2]: 92%

Structure (SMILES): Clc1ccc(C(c2ccccc2)c2nnnn2CCCCN2CCC(Cc3ccccc3)CC2)cc1 (configuration not stated)
- IC50 [3]: 90 nM
- IC50 [4]: 780 nM
- inhibition at 1 µM [5]: 67.8%
- inhibition at 1 µM [6]: 58.9%
- inhibition at 1 µM [7]: 88.9%
- IC50 [8]: 550 nM

Structure (SMILES): COc1ccccc1C1=C(C#N)/C(=C(/C#N)c2nnn[nH]2)NC(C)(c2ccccc2OC)C1 (configuration not stated)
- IC50 (Cholinesterase): 0.29 µM
- IC50 (Acetylcholinesterase [9]): 19300 nM

Structure (SMILES): CCCCCCOc1nc2nnnn2c2ccccc12
- Time (Mus musculus [10]): 62.2 s

Structure (SMILES): Cc1ccccc1-c1nn[nH]n1
- ED50 (Mus musculus [11]): 9.6 mg/kg
- selectivity ratio [12]: 19.7
- TD50 [13]: 190 mg/kg

Structure (SMILES): CCCCCOc1nc2nnnn2c2ccccc12
- Time (Mus musculus [10]): 112.3 s

Structure (SMILES): COc1ccc(C2Cc3nnnn3-c3ccsc32)cc1 (configuration not stated)
- ED50 (Mus musculus [14]): 44 mg/kg
- ED50 (Mus musculus [15]): 65.5 mg/kg

Structure (SMILES): COc1ccc2c3c1O[C@H]1C[C@@H](O)C=C[C@@]31CCN(C)C2 [GALANTAMINE]
- IC50 at 24 h ([1]; NIH/3T3 cells): 7.28 µM

Structure (SMILES): Cc1ccccc1Cn1nnnc1-c1ccccc1C
- ED50 (Mus musculus [14]): 12.7 mg/kg
- TD50 [16]: 500 mg/kg

Structure (SMILES): Oc1cccc(/C=N/NCCCCc2nnnn2-c2ccccc2)c1
- inhibition [17]: 51.3%

Structure (SMILES): FC(F)(F)c1ccc(C2Cc3nnnn3-c3ccsc32)cc1 (configuration not stated)
- ED50 (Mus musculus [14]): 23.4 mg/kg
- Time (Mus musculus [18]): 51.43 s
- ED50 (Mus musculus [15]): 64.7 mg/kg

Structure (SMILES): O=C(CCCSc1nnnn1-c1ccccc1)N/N=C/c1cccc(O)c1
- IC50 at 24 h ([1]; NIH/3T3 cells): 105 µM
- IC50 (Acetylcholinesterase [19]): 76.5 µM

Structure (SMILES): O=C1c2ccccc2C[C@@H]1Sc1nnnn1-c1ccc(F)cc1
- IC50 (Acetylcholinesterase [20]): 3.04 µM

Structure (SMILES): O=C1NC(=O)C(c2ccccc2)(c2ccccc2)N1 [PHENYTOIN]
- ED50 (Rattus norvegicus [21]): > 500 mg/kg
- ED50 (Rattus norvegicus [22]): 28.1 mg/kg

Structure (SMILES): Cc1ccccc1-n1nnnc1S[C@H]1Cc2ccccc2C1=O
- IC50 (Acetylcholinesterase [20]): 7.56 µM

Structure (SMILES): FC(F)(F)c1cccc(C2Cc3nnnn3-c3ccsc32)c1 (configuration not stated)
- Time (Mus musculus [18]): 73.63 s

Structure (SMILES): Cc1ccc(-n2c(=O)c3ccccc3n3nnnc23)cc1
- Time (Mus musculus [23]): 11.83 s

Structure (SMILES): O=c1c2ccccc2n2nnnc2n1-c1ccccc1F
- Time (Mus musculus [23]): 14.67 s

Structure (SMILES): Cc1ccccc1-n1c(C)nc2c(OCc3nnn(S(=O)(=O)c4ccc(N)cc4)n3)cccc2c1=O
- ED50 (Rattus norvegicus [21]): 72.3 mg/kg
- ED50 (Rattus norvegicus [22]): 4.93 mg/kg

Structure (SMILES): Cc1ccccc1-c1nnnn1Cc1cccc(F)c1
- ED50 (Mus musculus [14]): 39.9 mg/kg
- TD50 [16]: 450 mg/kg

Structure (SMILES): Fc1ccc(C(c2ccc(F)cc2)c2nnnn2CCCCN2CCC(Cc3ccccc3)CC2)cc1
- IC50 [3]: 453 nM
- IC50 [4]: 298 nM
- inhibition at 1 µM [5]: 92.3%
- inhibition at 1 µM [6]: 81%
- inhibition at 1 µM [7]: 77.6%
- IC50 [8]: 58 nM

Structure (SMILES): O=C(CCCSc1nnnn1-c1ccccc1)N/N=C/c1cccc([N+](=O)[O-])c1
- IC50 (Acetylcholinesterase [19]): 42.5 µM

Structure (SMILES): Cc1ccccc1-n1c(C)nc2c(OCc3nnn(Cc4ccc(-c5ccncc5)cc4)n3)cccc2c1=O
- ED50 (Rattus norvegicus [21]): > 100 mg/kg
- ED50 (Rattus norvegicus [22]): 12.9 mg/kg

Structure (SMILES): FC(F)(F)c1ccccc1C1Cc2nnnn2-c2ccsc21 (configuration not stated)
- ED50 (Mus musculus [14]): 19 mg/kg
- Time (Mus musculus [18]): 68.43 s
- ED50 (Mus musculus [15]): 26.2 mg/kg

Structure (SMILES): CN(C)C(=O)Oc1cccc([N+](C)(C)C)c1 [NEOSTIGMINE]
- IC50 (Cholinesterase): 8.41 µM
- IC50 (Acetylcholinesterase [9]): 19 nM

Structure (SMILES): O=[N+]([O-])c1cccc(/C=N/NCCCCc2nnnn2-c2ccccc2)c1
- IC50 at 24 h ([1]; NIH/3T3 cells): 51.7 µg/mL
- inhibition [2]: 98.5%

Structure (SMILES): Cc1cccc(-n2c(=O)c3ccccc3n3nnnc23)c1
- Time (Mus musculus [23]): 16.5 s

Structure (SMILES): NC(=O)N1c2ccccc2C=Cc2ccccc21 [CARBAMAZEPINE]
- ED50 (Mus musculus [14]): 11.8 mg/kg
- ED50 (Mus musculus [24]): 27.3 mg/kg

Structure (SMILES): Clc1ccccc1-c1nnn[nH]1
- ED50 (Mus musculus [25]): 83.3 mg/kg

Structure (SMILES): Cc1ccccc1-n1c(C)nc2c(OCc3nnn(C(=O)c4ccc(N)cc4)n3)cccc2c1=O
- ED50 (Rattus norvegicus [21]): 48.4 mg/kg
- ED50 (Rattus norvegicus [22]): 10.9 mg/kg

Structure (SMILES): COc1ccc(Oc2nc3nnnn3c3ccccc23)cc1
- Time (Mus musculus [10]): 85.2 s

Structure (SMILES): NC(=O)O[C@@H](Cn1ncnn1)c1ccccc1Cl [CENOBAMATE]
- ED50 (Mus musculus [26]): 9.8 mg/kg
- ED50 (Mus musculus [27]): 28.5 mg/kg

Structure (SMILES): O=C1c2ccccc2C[C@@H]1Sc1nnnn1-c1cccc(F)c1
- IC50 (Acetylcholinesterase [20]): 2.63 µM

Structure (SMILES): CC1(c2ccc(F)cc2)CC(c2ccc(F)cc2)=C(C#N)/C(=C(/C#N)c2nnn[nH]2)N1 (configuration not stated)
- IC50 (Cholinesterase): 38.8 µM
- IC50 (Acetylcholinesterase [9]): 2010 nM

Structure (SMILES): O=C1c2ccccc2C[C@@H]1Sc1nnnn1-c1cccc([N+](=O)[O-])c1
- IC50 (Acetylcholinesterase [20]): 2.86 µM

Structure (SMILES): Clc1ccc(C2Cc3nnnn3-c3ccsc32)cc1 (configuration not stated)
- ED50 (Mus musculus [14]): 9.5 mg/kg
- ED50 (Mus musculus [15]): 20.5 mg/kg

Structure (SMILES): O=C(CCCSc1nnnn1-c1ccccc1)N/N=C/c1ccccc1[N+](=O)[O-]
- IC50 (Acetylcholinesterase [19]): 54.7 µM

Structure (SMILES): CNCCC(Oc1ccc(C(F)(F)F)cc1)c1ccccc1 (configuration not stated) [FLUOXETINE]
- Time (Mus musculus [23]): 17.83 s
- Time (Mus musculus [18]): 54.21 s
- Time (Mus musculus [10]): 61.3 s

Structure (SMILES): CCC1(C)CC(=O)NC1=O (configuration not stated) [ETHOSUXIMIDE]
- ED50 (Mus musculus [15]): 106 mg/kg
- ED50 (Rattus norvegicus [21]): 167 mg/kg
- ED50 (Rattus norvegicus [22]): > 500 mg/kg

Structure (SMILES): Clc1ccc(Oc2nn3nnnc3c3ccccc23)cc1
- ED50 (Mus musculus [26]): 6.8 mg/kg
- ED50 (Mus musculus [24]): 24 mg/kg
- selectivity ratio [12]: 67.1
- TD50 at 0.25 h [28]: 456 mg/kg

Structure (SMILES): O=C1c2ccccc2C[C@@H]1Sc1nnnn1-c1ccc([N+](=O)[O-])cc1
- IC50 (Acetylcholinesterase [20]): 6.67 µM

Structure (SMILES): O=C1c2ccccc2C[C@@H]1Sc1nnnn1-c1ccccc1F
- IC50 (Acetylcholinesterase [20]): 4.04 µM
